Results as given in patent publication US8669346B2, “Bone marrow targeting peptides” (Case Western Reserve University, priority 2010, dated 2014).
Entries after “also recorded” stand apart in the source; their conditions may differ. Where no end group is shown, it is not given here.

Experiments:
bone marrow [1] = assay: in vivo phage display screening; sequencing of phage plaques after the 5th round of injection; design: species or system C57BU6 mice; details: for Sequence copy number C BM: control bone marrow; for Sequence copy number C BM / Sequence copy number Irr BM: 20 plaques per organ isolate; for Sequence copy number Irr BM: irradiated bone marrow; for Sequence copy number Lung: 20 plaques per organ isolate (Table III); for R. Leg (IRR) / Lung / L. Leg (Non-IRR): number of sequenced plaques with this sequence; for R. Leg (IRR): bone marrow of irradiated right leg; for R. Leg (IRR) / L. Leg (Non-IRR): after last injection; for Lung: after last injection (Table II); for L. Leg (Non-IRR): bone marrow of non-irradiated left leg
Protocol: FIG. 2 illustrates schematic view of a phage screening strategy in accordance with an aspect of the application. The entire procedure was repeated 5 times to eliminate non-specific phage. On the fifth extraction, phage plaques were isolated from multiple organs and individually collected, expanded and sequenced.
(§1) C57BU6 mice had their right leg irradiated then, 24 h later, a phage library was injected and allowed to circulate, bone marrow was then harvested and the phage pool isolated. Phage were amplified and injected into the next mouse, and this process repeated a total of five times. The phage pool was then analysed from irradiated and non-irradiated legs and the sequences determined. Individual phage were then amplified, injected into irradiated mice and tissue distribution assessed. Table 1 lists the different peptides that came out of the sequencing from plaques plated after the last injection.
The screening methodology employed for isolating bone marrow-binding peptide sequences via phage display is illustrated in FIG. 2. Included in our screening strategy was the idea of obtaining some bone marrow-binding peptides that had high affinity for irradiated bone marrow, which, although not a required feature for targeting UCB cells to marrow, could be useful for engraftment into hosts where radiation treatment is part of the conditioning regimen. After the 5th round of phage injections, phage was isolated from lungs and from irradiated and non-irradiated bone marrow and sequenced (20 plaques per organ isolate).

bone marrow [2] = assay: distribution of individual phage injected into mice whose right leg was irradiated (FIG. 1); type: in vivo
Protocol: FIG. 1 illustrates the distribution of individual phage injected into mice whose right leg was irradiated. The amount of phage was normalized to tissue mass.
as §1

bone marrow [3] = assay: phage playoff screen, phage titer (PFU) per gram of tissue (FIG. 3); type: in vivo; details: equimolar phage injected, single mouse
Protocol: FIG. 3 illustrates a chart showing the results of a phage “playoff screen” where equimolar amounts of phage were injected into a mouse and plaque forming units (PFU) quantified.
We conducted a “playoff screen” to confirm bone marrow-targeting specificity. To perform a Playoff Screen, selected phage, along with a randomly selected phage from the pre-selected phage pool, were injected at equi-molar amounts into irradiated and non-irradiated mice, the bone marrows extracted, weighed and assayed for phage titer per gram of tissue; an example of the results of a Playoff Screen is shown in FIG. 3. While the data shown here are from only a single mouse, the results were important in several aspects.

UCB CD34+ cells [4] = assay: cell coating by CCP, flow cytometry using FITC-labeled Streptavidin; type: cell-based, human
Protocol: (§2) The CCP molecule has three primary components: One, the targeting peptide sequence; two, a linker sequence containing a biotinylated amino acid; and, three a lipid moiety for integration into the cell membrane (FIG. 4). Once synthesized, all CCP molecules are tested for purity and molecular weight using HPLC and mass spectroscopy (located in the Puget Sound Blood Center); for their ability to coat UCB CD34+ cells using flow cytometry, for any toxicity effects on progenitors using MTT and hematopoietic colony forming unit (CFU) assays.
(§3) Sequences from this initial round of selection (CALFFV (SEQ ID NO:1), RAPGGET (SEQ ID NO:41), RKVVVGS (SEQ ID NO: 4) and control RSR) were contracted out to commercial vendors for synthesis into CCPs. One single-hit sequence from bone marrow, RKVVVGS (SEQ ID NO:4), termed “RKV”, was successfully synthesized, purified, and its molecular weight validated by mass spectroscopy.

UCB CD34+ cells [5] = assay: MTT assay, toxicity on coated cells; type: cell-based, human; details: data not shown
Protocol: as §2, §3

bone marrow [6] = assay: spleen and bone marrow-targeting of UCB cells coated with RKV-CCP, qRT-PCR of human ALU sequences (FIG. 5); type: in vivo, mice; details: 3 weeks post injection
Excerpt: FIG. 5 illustrates a chart showing ALU qRT-PCR quantification of human UCB cell numbers. The y-axis indicates human cell numbers calculated from a human cell standard curve. RKV=RKV-coated human UCB cells; NC=Non-coated human UCB cells; P=Plasma-injected. ρ values are from Student's t test between RKV and NC samples. The squares indicate the individual values for the RKV samples.
Preliminary spleen and bone marrow-targeting of UCB cells has already been conducted with the RKV peptides as a CCP molecule (RKV-CCP). UCB cells were isolated using a discontinuous Percol gradient, red blood cells were lysed with ammonium chloride, and the cells were incubated at 37° C. for a total of 10 min with RKV-CCP molecule (30 μg/ml), centrifuged, washed and stored at 4° C. until injected. Progenitors from two separate UCB units were coated and tested. Mice were sub-lethally irradiated with 250 cGy and injected with 1.0×10^8 RKV-CCP coated or non-coated UCB cells, or plasma-only control; 2 mice per group per UCB sample for a total of 4 mice per injection group. Bone marrow, spleen and blood were collected 3 weeks post injection. qRT-PCR was then conducted to assess human ALU sequences. The number of human cells found in the marrow was derived from a qRT-PCR standard curve of known amounts of human cell mixed with murine […] cells. […] Plasma-injected mice had essentially no signal.

spleen = assay: isolated phage injected into whole body irradiated mice; type: in vivo

Q: Which “Sequence copy number C BM” value (bone marrow [1]) does the source give for CALFFV (listed as Homo sapiens) here?
A: 0

Q: And the “Sequence copy number Irr BM” value (bone marrow [1])?
A: 4

Q: What about the “Sequence copy number Lung” value (bone marrow [1]) of the same substance?
A: 1

Q: And the “R. Leg (IRR)” value (bone marrow [1])?
A: 4

Q: And the Lung (bone marrow [1])?
A: 1

Q: How did the “R. Leg (IRR)” value (bone marrow [1]) turn out when “CGYREVSSAALE (listed as Homo sapiens) [-CGYREVSSAALE]” was run?
A: 1

Q: Which results are given for DDQSVSRKLAAALE (listed as Homo sapiens)?
A: Sequence copy number C BM (bone marrow [1]): 0; Sequence copy number Irr BM (bone marrow [1]): 3; Sequence copy number Lung (bone marrow [1]): 0; R. Leg (IRR) (bone marrow [1]): 3; increased signal in irradiated leg (bone marrow [2]; individual phage, irradiated versus non-irradiated leg, in words): exception

Q: With DGRSSRG (listed as Homo sapiens) as the substance, how does the Lung (bone marrow [1]) read?
A: 1

Q: How did the “R. Leg (IRR)” value (bone marrow [1]) turn out when “DLAHDALLAWGPPSINCLTLGAP (listed as Homo sapiens)” was run?
A: 1

Q: Which Lung (bone marrow [1]) does the source give for “DRN-RSA (DRNRSA; listed as Homo sapiens)” here?
A: 1

Q: Which “L. Leg (Non-IRR)” value (bone marrow [1]) does the source give for “EGGNEV (listed as Homo sapiens) [EGGN-EV]” here?
A: 1

Q: What about the Lung (bone marrow [1]) of the same substance?
A: 1

Q: Which Lung (bone marrow [1]) does the source give for “FSGRRLVSPRPHPSN (listed as Homo sapiens)” here?
A: 1

Q: For GDRRDSR (listed as Homo sapiens), which “L. Leg (Non-IRR)” value (bone marrow [1]) is on record?
A: 1

Q: How did the Lung (bone marrow [1]) turn out when “GGL-RGGKLAAALE (GGLRGGKLAAALE; listed as Homo sapiens)” was run?
A: 1

Q: For GGNANRR (listed as Homo sapiens), which Lung (bone marrow [1]) is on record?
A: 1

Q: Which “Sequence copy number C BM” value (bone marrow [1]) does the source give for GIRVMEK (listed as Homo sapiens) here?
A: 0

Q: And the “Sequence copy number Irr BM” value (bone marrow [1])?
A: 2

Q: And the “Sequence copy number Lung” value (bone marrow [1])?
A: 0

Q: What about the “R. Leg (IRR)” value (bone marrow [1]) of the same substance?
A: 2

Q: GMKGVQL (listed as Homo sapiens) was tested. Which Lung (bone marrow [1]) did it give?
A: 1

Q: How did the “L. Leg (Non-IRR)” value (bone marrow [1]) turn out when GPGLKEM (listed as Homo sapiens) was run?
A: 4

Q: For GRELRGQ (listed as Homo sapiens), which “L. Leg (Non-IRR)” value (bone marrow [1]) is on record?
A: 1

Q: With “GRGDR-R (GRGDRR; listed as Homo sapiens)” as the substance, how does the Lung (bone marrow [1]) read?
A: 1

Q: With “GRRGGAKPAVASRR (listed as Homo sapiens) [GRR-GGAKPAVASRR]” as the substance, how does the “L. Leg (Non-IRR)” value (bone marrow [1]) read?
A: 1

Q: For KSMARHR (listed as Homo sapiens), which “L. Leg (Non-IRR)” value (bone marrow [1]) is on record?
A: 1

Q: And the Lung (bone marrow [1])?
A: 1

Q: “KVSD-SL (KVSDSL; listed as Homo sapiens)” was tested. Which Lung (bone marrow [1]) did it give?
A: 1

Q: For LDSSLFN (listed as Homo sapiens), which “L. Leg (Non-IRR)” value (bone marrow [1]) is on record?
A: 1

Q: With LSTNRFV (listed as Homo sapiens) as the substance, how does the “L. Leg (Non-IRR)” value (bone marrow [1]) read?
A: 1

Q: Which Lung (bone marrow [1]) does the source give for LSTRVER (listed as Homo sapiens) here?
A: 1

Q: With QARNGGR (listed as Homo sapiens) as the substance, how does the “Sequence copy number C BM” value (bone marrow [1]) read?
A: 0

Q: And the “bone marrow specificity in the sequencing screen” value (bone marrow [1]; in words)?
A: no bone marrow specificity

Q: What about the “Sequence copy number Irr BM” value (bone marrow [1]) of the same substance?
A: 0

Q: And the “Sequence copy number Lung” value (bone marrow [1])?
A: 1

Q: What about the “phage levels / binding in lung” value (bone marrow [3]) of the same substance?
A: high levels; also recorded: highest level

Q: What about the “phage levels / titers in bone marrow” value (bone marrow [3]) of the same substance?
A: low levels

Q: What about the “titers in the lung compared with bone marrow” value (bone marrow [3]) of the same substance?
A: greater

Q: How did the Lung (bone marrow [1]) turn out when QNDSASG (listed as Homo sapiens) was run?
A: 1

Q: With RAANTAR (listed as Homo sapiens) as the substance, how does the Lung (bone marrow [1]) read?
A: 1

Q: How did the “Sequence copy number C BM” value (bone marrow [1]) turn out when RAPGGET (listed as Homo sapiens) was run?
A: 0

Q: And the “Sequence copy number Irr BM” value (bone marrow [1])?
A: 1

Q: And the “Sequence copy number Lung” value (bone marrow [1])?
A: 0

Q: With “RGLQTGLEGSAWLLECGRA (listed as Homo sapiens)” as the substance, how does the “R. Leg (IRR)” value (bone marrow [1]) read?
A: 1

Q: How did the “ability to coat cells” value (UCB CD34+ cells [4]) turn out when “RKV: cell coating peptide: RKVVVGS targeting sequence, spacer with biotin-labeled amino acid, lipid moiety for membrane insertion (also: spacer with biotin-labeled amino acid, end not given here, lipid moiety for membrane insertion, end not given here; listed as Homo sapiens)” was run?
A: able to coat cells efficiently

Q: And the “toxic effects on coated cells (MTT)” value (UCB CD34+ cells [5])?
A: no toxic effects

Q: And the “human-derived cells in bone marrow compared to control non-coated cells” value (bone marrow [6]; 1.0×10^8 UCB cells coated at 30 μg/ml, 250 cGy, ρ value 0.09)?
A: ~7 ×

Q: And the “UCB cell numbers in bone marrow compared to spleen” value (bone marrow [6])?
A: approximately 6 times

Q: And the “UCB cell numbers in the spleen compared to uncoated UCB cells” value (bone marrow [6]; statistically significant)?
A: enhanced

Q: With RKVVVGS (listed as Homo sapiens) as the substance, how does the “Sequence copy number C BM” value (bone marrow [1]) read?
A: 0

Q: What about the “Sequence copy number Irr BM” value (bone marrow [1]) of the same substance?
A: 1

Q: What about the “Sequence copy number Lung” value (bone marrow [1]) of the same substance?
A: 0

Q: And the “R. Leg (IRR)” value (bone marrow [1])?
A: 1

Q: And the “binding in irradiated legs” value (bone marrow [2]; in words)?
A: marked increase in binding

Q: What about the “binding in non-irradiated legs” value (bone marrow [2]; in words) of the same substance?
A: minimal binding

Q: And the “signal in the irradiated leg relative to non-irradiated leg” value (bone marrow [2]; individual phage, right leg irradiated, phage normalized to tissue mass)?
A: approximately 15 ×

Q: What about the binding to spleen (spleen) of the same substance?
A: highly increased binding

Q: For RQDGRHG (listed as Homo sapiens), which “Sequence copy number C BM” value (bone marrow [1]) is on record?
A: 0

Q: What about the “Sequence copy number Irr BM” value (bone marrow [1]) of the same substance?
A: 1

Q: And the “Sequence copy number Lung” value (bone marrow [1])?
A: 0

Q: And the “R. Leg (IRR)” value (bone marrow [1])?
A: 1

Q: With RRSGKLL (listed as Homo sapiens) as the substance, how does the “L. Leg (Non-IRR)” value (bone marrow [1]) read?
A: 2

Q: What does the source list for SIGHRRE (listed as Homo sapiens)?
A: Sequence copy number C BM (bone marrow [1]): 4; Sequence copy number Irr BM (bone marrow [1]): 0; Sequence copy number Lung (bone marrow [1]): 0; L. Leg (Non-IRR) (bone marrow [1]): 1; phage levels / titers in bone marrow (bone marrow [3]): minimal

Q: Which results are given for “SSYALI (listed as Homo sapiens) [SS-YALI]”?
A: Sequence copy number C BM (bone marrow [1]): 1; Sequence copy number Irr BM (bone marrow [1]): 5; Sequence copy number Lung (bone marrow [1]): 0; R. Leg (IRR) (bone marrow [1]): 5

Q: With SVAPLRR (listed as Homo sapiens) as the substance, how does the Lung (bone marrow [1]) read?
A: 1

Q: Which “L. Leg (Non-IRR)” value (bone marrow [1]) does the source give for “TS-QLWC (TSQLWC; listed as Homo sapiens)” here?
A: 4

Q: How did the Lung (bone marrow [1]) turn out when TSLKDDR (listed as Homo sapiens) was run?
A: 1

Q: How did the Lung (bone marrow [1]) turn out when “VFSGVEVSSRPHSSN (listed as Homo sapiens)” was run?
A: 1

Q: VGPSVGP (listed as Homo sapiens) was tested. Which “L. Leg (Non-IRR)” value (bone marrow [1]) did it give?
A: 1

Q: Which Lung (bone marrow [1]) does the source give for “VGVRIGGSLRPHSSN (listed as Homo sapiens)” here?
A: 1

Q: VSGSVR (listed as Homo sapiens) was tested. Which Lung (bone marrow [1]) did it give?
A: 1

Q: For “VSKRDL (listed as Homo sapiens) [V-SKRDL]”, which “R. Leg (IRR)” value (bone marrow [1]) is on record?
A: 1

Q: For VVRAK (listed as Homo sapiens), which Lung (bone marrow [1]) is on record?
A: 1
